According to US6596499B2, “Membrane molecule indicator compositions and methods” (The Netherlands Cancer Institute, priority 2000, dated 2003):

Columns and labels:
PLC = assay type: cell-based, mouse
N1E-115 cells = settings: N1E-115 and other cells; cited from earlier work

Compound | translocation amplitude (PLC) | time for neurites to retract and cell soma to round up (N1E-115 cells) | desensitization of PLC activation on repeated stimulation (PLC) | duration of translocation response (long-lasting) (PLC)
CCCCCCCC/C=C\CCCCCCCC(=O)OCC(O)COP(=O)(O)O (centres unmarked) [LPA, 1-oleoyl LPA] | 25 % of BK response control values | ≤ 60 s | – | –
neurokinin A [NKA] | – | – | incremental partial homologous desensitization | –
NCCc1c[nH]cn1 [histamine] | 40 % of BK-induced peak values | – | – | ≥ 15 min
